Source: ChEMBL document CHEMBL1155460, “Prediction of acetylcholinesterase inhibitors and characterization of correlative molecular descriptors by machine learning methods” (Eur J Med Chem, 2010)

Target: Acetylcholinesterase (Homo sapiens, UniProt P22303)
Sequence (P22303 whole entry): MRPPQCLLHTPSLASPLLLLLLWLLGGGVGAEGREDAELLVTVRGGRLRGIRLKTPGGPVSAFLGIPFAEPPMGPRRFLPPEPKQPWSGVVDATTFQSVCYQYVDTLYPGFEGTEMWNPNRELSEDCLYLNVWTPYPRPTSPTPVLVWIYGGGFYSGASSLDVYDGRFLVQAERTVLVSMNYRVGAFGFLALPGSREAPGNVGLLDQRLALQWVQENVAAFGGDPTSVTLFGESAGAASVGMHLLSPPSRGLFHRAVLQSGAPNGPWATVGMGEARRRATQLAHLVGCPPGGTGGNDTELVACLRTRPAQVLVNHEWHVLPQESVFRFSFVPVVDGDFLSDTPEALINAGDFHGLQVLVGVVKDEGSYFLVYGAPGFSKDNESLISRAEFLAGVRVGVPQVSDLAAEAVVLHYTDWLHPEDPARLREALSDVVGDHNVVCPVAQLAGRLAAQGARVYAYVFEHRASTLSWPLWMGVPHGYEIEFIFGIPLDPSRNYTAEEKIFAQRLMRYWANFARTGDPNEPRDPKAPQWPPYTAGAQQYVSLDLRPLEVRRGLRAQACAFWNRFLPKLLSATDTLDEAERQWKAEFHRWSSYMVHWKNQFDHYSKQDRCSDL

| Compound | IC50 [nM] |
| --- | --- |
| CNC(=O)Oc1cccc(CN(C)CCCOc2ccc3c(c2)O/C(=C\c2cc(O)c(O)c(O)c2)C3=O)c1 | 2.99 |
| c1ccc2c(NCCCCCCNc3c4c(nc5ncccc35)CCCCC4)c3c(nc2c1)CCCCC3 | 2.5 |
| O=C(CCc1c[nH]c2ccccc12)NCCCCCCNc1c2c(nc3ccccc13)CCCC2 | 0.02 |
| O=C(CCc1c[nH]c2ccccc12)NCCCCCCCNc1c2c(nc3ccccc13)CCCC2 | 0.06 |
| Cc1ccc2nc3c(c(Nc4ccccc4)c2c1)CCCC3 | 3700 |
| O=C(CCc1c[nH]c2ccccc12)NCCCCCCCCCCNc1c2c(nc3cc(Cl)ccc13)CCCC2 | 21.9 |
| O=C(CCOCCc1c[nH]c2ccccc12)NCCCCCCNc1c2c(nc3cc(Cl)ccc13)CCCC2 | 0.7 |
| O=C(CCOCCc1c[nH]c2ccccc12)NCCCCCCCNc1c2c(nc3cc(Cl)ccc13)CCCC2 | 3 |
| Cc1ccc2c(Nc3ccccc3)c3c(nc2c1)CCCC3 | 750 |
| Clc1ccc2c(Nc3ccccc3)c3c(nc2c1)CCCC3 | 170 |
| O=[N+]([O-])c1ccc2nc3c(c(Nc4ccccc4)c2c1)CCCC3 | 1600 |
| O=[N+]([O-])c1ccc2c(Nc3ccccc3)c3c(nc2c1)CCCC3 | 4800 |
| CCCc1cc(N2CCC=N2)ccc1C(=O)ON=C(N)c1ccc(C(F)(F)F)cc1 | 13000 |
| Nc1ccc2c(c1)c(-c1ccccc1)[n+](CCCNCCCNCCCNc1c3c(nc4ccccc14)CCCC3)c1cc(N)ccc21 | 1.49 |
| COc1ccccc1CN(C)CCCN(C)CCCNCCC[n+]1c(-c2ccccc2)c2cc(N)ccc2c2ccc(N)cc21 | 894 |
| CNC(=O)Oc1cccc(CN(C)CCCCCCCOc2ccc3c(c2)O/C(=C\c2cc(O)c(O)c(O)c2)C3=O)c1 | 0.52 |
| CNC(=O)Oc1cccc(CN(C)CCCCCCCOc2ccc3c(c2)C/C(=C\c2cc(O)c(O)c(O)c2)C3=O)c1 | 1.8 |
| CNC(=O)Oc1cccc(CN(C)CCCCCCCOc2ccc3c(c2)OC/C(=C/c2cc(O)c(O)c(O)c2)C3=O)c1 | 9.81 |

| Compound | IC50 [nM] |
| --- | --- |
| CNC(=O)Oc1cccc(CN(C)CCCCCCCOc2ccc3c(c2)CC/C(=C/c2cc(O)c(O)c(O)c2)C3=O)c1 | 4.94 |
| O=C(CCOCCc1c[nH]c2ccccc12)NCCCCCNc1c2c(nc3cc(Cl)ccc13)CCCC2 | 1.5 |
| CC(Cc1ccc(O)cc1)C1CCC(C)C(c2ccc(O)cc2)C1 (stereo unspecified) | 620 |
| Cc1c(/N=C/c2ccccc2O)cc2c(c1N)C(C)(C)CC2(C)C | 16000 |
| Cc1nc(N)ncc1-c1nnnn1-c1ccc(-c2ccccc2)cc1 | 27000 |
| Fc1ccc(N(Cc2ccc3c(c2)OCO3)C(=S)Nc2cccc(C(F)(F)F)c2)cc1 | 8000 |
| Cc1cc(C2(c3cc(C)c(O)c(C)c3)CCCCC2)cc(C)c1O | 15000 |
| O=C(CC1S/C(=N/c2ccc(C3CCCCC3)cc2)NC1=O)Nc1ccc(OC(F)(F)F)cc1 (stereo unspecified) | 2900 |
| CN(C)c1ccc(-c2c3cc(O)c(=O)cc-3oc3cc(O)c(O)cc23)cc1 | 22000 |
| COc1ccc(/N=C/c2cn(-c3ccc(OC)cc3)cc2/C=N/c2ccc(OC)cc2)cc1 | 14000 |
| N#Cc1ccc2[nH]cc(CCC(=O)NCCCCCCNc3c4c(nc5cc(Cl)ccc35)CCCC4)c2c1 | 0.7 |
| O=C(Cc1c[nH]c2ccccc12)NCCCCCCCNc1c2c(nc3cc(Cl)ccc13)CCCC2 | 0.2 |
| O=C(NCCCCCCCCNc1c2c(nc3cc(Cl)ccc13)CCCC2)c1c[nH]c2ccccc12 | 46 |
| O=C(CCc1c[nH]c2ccccc12)NCCCCCNc1c2c(nc3ccccc13)CCCC2 | 70 |
| O=C(/C=C/c1c[nH]c2ccccc12)NCCCCCCNc1c2c(nc3cc(Cl)ccc13)CCCC2 | 18 |
| CN(CCCNC(=O)CCc1c[nH]c2ccccc12)CCCNc1c2c(nc3ccccc13)CCCC2 | 147 |
| O=C(NCCCCCCNc1c2c(nc3cc(Cl)ccc13)CCCC2)c1c[nH]c2ccccc12 | 33 |
| O=C(CCCc1c[nH]c2ccccc12)NCCCCCNc1c2c(nc3cc(Cl)ccc13)CCCC2 | 0.3 |
| O=C(Cc1c[nH]c2ccc(Br)cc12)NCCCCCCCNc1c2c(nc3cc(Cl)ccc13)CCCC2 | 0.6 |

| Compound | IC50 [nM] |
| --- | --- |
| Clc1ccc2c(NCCCCCCCNc3c4c(nc5cc(Cl)ccc35)CCCC4)c3c(nc2c1)CCCC3 | 0.07 |
| Fc1ccc2c(NCCCCCCCCNc3c4c(nc5cc(F)ccc35)CCCC4)c3c(nc2c1)CCCC3 | 0.7 |
| O=C(OC1Cc2c(O)cc(O)cc2OC1c1ccc(O)c(O)c1)c1cc(O)c(O)c(O)c1 (stereo unspecified) | 28000 |
| CNC(=O)Oc1cccc(CN(C)CCCCCCCOc2ccc3c(c2)O/C(=C\c2cccc4ccccc24)C3=O)c1 | 2.09 |
| CN(CCCNC(=O)CCc1c[nH]c2ccccc12)CCCNc1c2c(nc3cc(Cl)ccc13)CCCC2 | 2.9 |
| O=C(NCCCCCNc1c2c(nc3cc(Cl)ccc13)CCCC2)c1c[nH]c2ccccc12 | 180 |
| O=C(NCCCCCCCNc1c2c(nc3cc(Cl)ccc13)CCCC2)c1n[nH]c2ccccc12 | 95 |
| O=C(NCCCCCCCNc1c2c(nc3cc(Cl)ccc13)CCCC2)c1c[nH]c2ccccc12 | 36 |
| O=C(CCc1c[nH]c2ccccc12)NCCCCCCCCNc1c2c(nc3cc(Cl)ccc13)CCCC2 | 0.5 |
| Cn1cc(C(=O)NCCCCCCCNc2c3c(nc4cc(Cl)ccc24)CCCC3)c2ccccc21 | 10.9 |
| O=C(CCCc1c[nH]c2ccccc12)NCCCCCCNc1c2c(nc3cc(Cl)ccc13)CCCC2 | 0.5 |
| Clc1ccc2c(NCCCCCCNc3c4c(nc5cc(Cl)ccc35)CCCC4)c3c(nc2c1)CCCC3 | 0.6 |
| c1cnc2nc3c(c(NCCCCCCCNc4c5c(nc6ncccc46)CCCC5)c2c1)CCCC3 | 1.3 |
| N#Cc1cc(-c2ccccc2)nnc1NCCN1CCOCC1 [BAZINAPRINE] | 100000 |
| COc1ccccc1CN(C)CCCCCC(=O)N(C)CCCCCCCCN(C)C(=O)CCCCCN(C)Cc1ccccc1OC [CAPROCTAMINE] | 104 |
| COc1cc(N)c(Cl)cc1C(=O)NC1CCN(Cc2ccccc2)CC1 [CLEBOPRIDE] | 890 |
| O=C(Nc1cccc(C2=NCCN2)c1)Nc1cccc(C2=NCCN2)c1 [IMIDOCARB] | 590 |
| Cc1cc(-c2ccccc2)nnc1NCCN1CCOCC1 [MINAPRINE] | 85000 |
